From patent US10597388B2, “Pyridazinone herbicides” (FMC CORPORATION, priority 2014, dated 2020)

Legend:
Test in all cases: Test E greenhouse herbicide test, pre- and postemergence
Assay type in all cases: in vivo
[1] = test system: johnsongrass (Sorghum halepense); details: Preemergence
How it was run: (§1)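 For each species, sown seed in silt loam and young plants (2 to 18 cm) in a peat/vermiculite medium were each treated with compound dissolved in surfactant-containing, non-phytotoxic solvent. After 14 to 21 d under greenhouse conditions, effects were visually rated, 100 meaning complete control.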

[2] = test system: arrowleaf sida (Sida rhombifolia)
How it was run: as §1

[3] = test system: nutsedge, yellow (yellow nutsedge, Cyperus esculentus); details: Preemergence
How it was run: as §1

[4] = test system: corn (Zea mays)
How it was run: as §1

[5] = test system: surinam grass (Brachiaria decumbens); details: Preemergence
How it was run: as §1

[6] = test system: panicum, fall (fall panicum, Panicum dichotomiflorum)
How it was run: as §1

[7] = test system: field bindweed (Convolvulus arvensis)
How it was run: as §1

[8] = test system: momingglory (Ipomoea coccinea); details: Preemergence
How it was run: as §1

[9] = test system: velvetleaf (Abutilon theophrasti); details: Preemergence
How it was run: as §1

[10] = test system: foxtail, green (green foxtail, Setaria viridis); details: Preemergence
How it was run: as §1

[11] = test system: waterhemp (common waterhemp, Amaranthus rudis)
How it was run: as §1

[12] = test system: lambsquarters (Chenopodium album); details: Preemergence
How it was run: as §1

[13] = test system: foxtail, giant (giant foxtail, Setaria faberii); details: Preemergence
How it was run: as §1

[14] = test system: wild poinsettia (Euphorbia heterophylla); details: Postemergence
How it was run: as §1

[15] = 31 g ai/ha, scale 0 to 100, 0 no effect, 100 complete control
[16] = 250 g ai/ha, visual, scale 0 no effect to 100 complete control
[17] = 62 g ai/ha, Postemergence, scale 0 to 100 (0 no effect, 100 complete control)
[18] = 62 g ai/ha, Preemergence, scale 0 to 100 (0 no effect, 100 complete control)
[19] = 125 g ai/ha, Postemergence, scale 0 to 100 (0 no effect, 100 complete control)
[20] = 250 g ai/ha, Postemergence, scale 0 to 100 (0 no effect, 100 complete control)
[21] = Postemergence, 31 g ai/ha, visual, scale 0 no effect to 100 complete control
[22] = Preemergence, 31 g ai/ha, scale 0 to 100, 0 no effect, 100 complete control
[23] = Preemergence, 125 g ai/ha, visual, scale 0 no effect to 100 complete control
[24] = Preemergence, 250 g ai/ha, visual, scale 0 no effect to 100 complete control
[25] = 62 g ai/ha, scale 0 to 100 (0 no effect, 100 complete control)
[26] = 125 g ai/ha, scale 0 to 100 (0 no effect, 100 complete control)
[27] = 125 g ai/ha, Preemergence, scale 0 to 100 (0 no effect, 100 complete control)
[28] = 125 g ai/ha, visual, scale 0 no effect to 100 complete control
[29] = 250 g ai/ha, scale 0 to 100 (0 no effect, 100 complete control)
[30] = 31 g ai/ha, visual, scale 0 no effect to 100 complete control
[31] = Postemergence, 16 g ai/ha, visual, scale 0 no effect to 100 complete control

Cn1nc(Br)c(O)c(-c2cccc3ccccc23)c1=O [Compound 20]
Plant response rating, Johnsongrass [1, 15]: 0
Plant response rating, Johnsongrass [1, 16]: 0
Plant response rating, Arrowleaf Sida [2, 17]: 60
Plant response rating, Arrowleaf Sida [2, 18]: 70
Plant response rating, Arrowleaf Sida [2, 19]: 70
Plant response rating, Arrowleaf Sida [2, 20]: 80
Plant response rating, Arrowleaf Sida [2, 21]: 40
Plant response rating, Arrowleaf Sida [2, 22]: 0
Plant response rating, Arrowleaf Sida [2, 23]: 85
Plant response rating, Arrowleaf Sida [2, 24]: 95
Plant response rating, Nutsedge, Yellow [3, 25]: 50
Plant response rating, Nutsedge, Yellow [3, 26]: 75
Plant response rating, Nutsedge, Yellow [3, 15]: 0
Plant response rating, Nutsedge, Yellow [3, 16]: 95
Plant response rating, Corn [4, 17]: 0
Plant response rating, Corn [4, 18]: 0
Plant response rating, Corn [4, 19]: 0
Plant response rating, Corn [4, 20]: 15
Plant response rating, Corn [4, 21]: 0
Plant response rating, Corn [4, 22]: 0
Plant response rating, Corn [4, 23]: 0
Plant response rating, Corn [4, 24]: 0
Plant response rating, Surinam Grass [5, 25]: 65
Plant response rating, Surinam Grass [5, 26]: 85
Plant response rating, Surinam Grass [5, 15]: 10
Plant response rating, Surinam Grass [5, 16]: 90
Plant response rating, Panicum, Fall [6, 17]: 15
Plant response rating, Panicum, Fall [6, 18]: 35
Plant response rating, Panicum, Fall [6, 19]: 30
Plant response rating, Panicum, Fall [6, 27]: 65
Plant response rating, Panicum, Fall [6, 20]: 50
Plant response rating, Panicum, Fall [6, 21]: 0
Plant response rating, Panicum, Fall [6, 22]: 0
Plant response rating, Panicum, Fall [6, 24]: 98
Plant response rating, Field Bindweed [7, 17]: 85
Plant response rating, Field Bindweed [7, 18]: 65
Plant response rating, Field Bindweed [7, 19]: 90
Plant response rating, Field Bindweed [7, 20]: 95
Plant response rating, Field Bindweed [7, 21]: 75
Plant response rating, Field Bindweed [7, 22]: 35
Plant response rating, Field Bindweed [7, 23]: 85
Plant response rating, Field Bindweed [7, 24]: 95
Plant response rating, Morningglory [8, 25]: 75
Plant response rating, Morningglory [8, 26]: 90
Plant response rating, Morningglory [8, 15]: 20
Plant response rating, Morningglory [8, 16]: 95
Plant response rating, Velvetleaf [9, 25]: 65
Plant response rating, Velvetleaf [9, 26]: 80
Plant response rating, Velvetleaf [9, 15]: 0
Plant response rating, Velvetleaf [9, 16]: 100
Plant response rating, Foxtail, Green [10, 25]: 40
Plant response rating, Foxtail, Green [10, 15]: 0
Plant response rating, Foxtail, Green [10, 28]: 65
Plant response rating, Foxtail, Green [10, 16]: 70
Plant response rating, Waterhemp [11, 17]: 75
Plant response rating, Waterhemp [11, 18]: 65
Plant response rating, Waterhemp [11, 19]: 80
Plant response rating, Waterhemp [11, 27]: 85
Plant response rating, Waterhemp [11, 20]: 85
Plant response rating, Waterhemp [11, 21]: 70
Plant response rating, Waterhemp [11, 22]: 0
Plant response rating, Waterhemp [11, 24]: 100
Plant response rating, Lambsquarters [12, 25]: 95
Plant response rating, Lambsquarters [12, 15]: 70
Plant response rating, Lambsquarters [12, 28]: 95
Plant response rating, Lambsquarters [12, 16]: 100
Plant response rating, Foxtail, Giant [13, 25]: 20
Plant response rating, Foxtail, Giant [13, 15]: 5
Plant response rating, Foxtail, Giant [13, 28]: 75
Plant response rating, Foxtail, Giant [13, 16]: 90
Plant response rating, Poinsettia, Wild [14, 25]: 20
Plant response rating, Poinsettia, Wild [14, 26]: 30
Plant response rating, Poinsettia, Wild [14, 29]: 30
Plant response rating, Poinsettia, Wild [14, 30]: 0

Cc1cc(C)c2ccccc2c1-c1c(O)c(C)nn(C)c1=O [Compound 21]
Plant response rating, Johnsongrass [1, 25]: 20
Plant response rating, Johnsongrass [1, 28]: 60
Plant response rating, Arrowleaf Sida [2, 18]: 0
Plant response rating, Arrowleaf Sida [2, 22]: 0
Plant response rating, Arrowleaf Sida [2, 23]: 50
Plant response rating, Nutsedge, Yellow [3, 25]: 75
Plant response rating, Nutsedge, Yellow [3, 26]: 80
Plant response rating, Nutsedge, Yellow [3, 15]: 0
Plant response rating, Corn [4, 18]: 0
Plant response rating, Corn [4, 22]: 0
Plant response rating, Corn [4, 23]: 30
Plant response rating, Surinam Grass [5, 25]: 100
Plant response rating, Surinam Grass [5, 26]: 100
Plant response rating, Surinam Grass [5, 15]: 95
Plant response rating, Panicum, Fall [6, 18]: 100
Plant response rating, Panicum, Fall [6, 27]: 100
Plant response rating, Panicum, Fall [6, 22]: 100
Plant response rating, Field Bindweed [7, 18]: 95
Plant response rating, Field Bindweed [7, 22]: 35
Plant response rating, Field Bindweed [7, 23]: 98
Plant response rating, Morningglory [8, 25]: 98
Plant response rating, Morningglory [8, 26]: 100
Plant response rating, Morningglory [8, 15]: 90
Plant response rating, Velvetleaf [9, 25]: 90
Plant response rating, Velvetleaf [9, 26]: 90
Plant response rating, Velvetleaf [9, 15]: 80
Plant response rating, Foxtail, Green [10, 25]: 100
Plant response rating, Foxtail, Green [10, 15]: 95
Plant response rating, Foxtail, Green [10, 28]: 100
Plant response rating, Waterhemp [11, 18]: 95
Plant response rating, Waterhemp [11, 27]: 100
Plant response rating, Waterhemp [11, 22]: 95
Plant response rating, Lambsquarters [12, 25]: 100
Plant response rating, Lambsquarters [12, 15]: 100
Plant response rating, Lambsquarters [12, 28]: 100
Plant response rating, Foxtail, Giant [13, 25]: 98
Plant response rating, Foxtail, Giant [13, 15]: 95
Plant response rating, Foxtail, Giant [13, 28]: 100

CC(=O)Oc1c(C)nn(C)c(=O)c1-c1c(C)cc(C)c2ccccc12 [Compound 99]
Plant response rating, Arrowleaf Sida [2, 17]: 50
Plant response rating, Arrowleaf Sida [2, 19]: 60
Plant response rating, Arrowleaf Sida [2, 31]: 10
Plant response rating, Arrowleaf Sida [2, 21]: 30
Plant response rating, Corn [4, 17]: 0
Plant response rating, Corn [4, 19]: 0
Plant response rating, Corn [4, 31]: 0
Plant response rating, Corn [4, 21]: 0
Plant response rating, Panicum, Fall [6, 17]: 50
Plant response rating, Panicum, Fall [6, 19]: 70
Plant response rating, Panicum, Fall [6, 31]: 20
Plant response rating, Panicum, Fall [6, 21]: 30
Plant response rating, Field Bindweed [7, 17]: 70
Plant response rating, Field Bindweed [7, 19]: 80
Plant response rating, Field Bindweed [7, 31]: 50
Plant response rating, Field Bindweed [7, 21]: 60
Plant response rating, Waterhemp [11, 19]: 75
Plant response rating, Waterhemp [11, 31]: 65
Plant response rating, Waterhemp [11, 21]: 45
Plant response rating, Poinsettia, Wild [14, 25]: 40
Plant response rating, Poinsettia, Wild [14, 26]: 50
Plant response rating, Poinsettia, Wild ([14]; 16 g ai/ha, visual, scale 0 no effect to 100 complete control): 35
Plant response rating, Poinsettia, Wild [14, 30]: 30

Cc1nn(C)c(=O)c(-c2cccc3ccc(Br)cc23)c1O [Compound 126]
Plant response rating, Arrowleaf Sida [2, 17]: 80
Plant response rating, Arrowleaf Sida [2, 19]: 100
Plant response rating, Arrowleaf Sida [2, 20]: 85
Plant response rating, Arrowleaf Sida [2, 21]: 75
Plant response rating, Corn [4, 17]: 10
Plant response rating, Corn [4, 19]: 5
Plant response rating, Corn [4, 20]: 5
Plant response rating, Corn [4, 21]: 0
Plant response rating, Panicum, Fall [6, 17]: 35
Plant response rating, Panicum, Fall [6, 19]: 30
Plant response rating, Panicum, Fall [6, 20]: 35
Plant response rating, Panicum, Fall [6, 21]: 10
Plant response rating, Field Bindweed [7, 17]: 90
Plant response rating, Field Bindweed [7, 19]: 95
Plant response rating, Field Bindweed [7, 20]: 100
Plant response rating, Field Bindweed [7, 21]: 85
Plant response rating, Waterhemp [11, 19]: 90
Plant response rating, Waterhemp [11, 20]: 90
Plant response rating, Waterhemp [11, 21]: 75
Plant response rating, Poinsettia, Wild [14, 25]: 20
Plant response rating, Poinsettia, Wild [14, 26]: 50
Plant response rating, Poinsettia, Wild [14, 29]: 50
Plant response rating, Poinsettia, Wild [14, 30]: 30
